Measured values published in ChEMBL document CHEMBL4507319 (2021).

Key:
[1] = biological target: Casein kinase II subunit alpha' (Homo sapiens) (UniProt P19784); conditions: Compound concentration 1000.0 nM
[2] = biological target: Dual specificity protein kinase CLK1 (Homo sapiens) (UniProt P49759); conditions: Compound concentration 1000.0 nM
[3] = biological target: 5-hydroxytryptamine receptor 7 (Homo sapiens) (UniProt P34969); conditions: Compound concentration 10.0 uM
[4] = biological target: Serine/threonine-protein kinase Nek5 (Homo sapiens) (UniProt Q6P3R8); conditions: Compound concentration 1000.0 nM
[5] = biological target: T1, Serine/threonine-protein kinase Sgk2 (Homo sapiens) (UniProt Q9HBY8); conditions: Compound concentration 1000.0 nM
T1 sequence (whole entry): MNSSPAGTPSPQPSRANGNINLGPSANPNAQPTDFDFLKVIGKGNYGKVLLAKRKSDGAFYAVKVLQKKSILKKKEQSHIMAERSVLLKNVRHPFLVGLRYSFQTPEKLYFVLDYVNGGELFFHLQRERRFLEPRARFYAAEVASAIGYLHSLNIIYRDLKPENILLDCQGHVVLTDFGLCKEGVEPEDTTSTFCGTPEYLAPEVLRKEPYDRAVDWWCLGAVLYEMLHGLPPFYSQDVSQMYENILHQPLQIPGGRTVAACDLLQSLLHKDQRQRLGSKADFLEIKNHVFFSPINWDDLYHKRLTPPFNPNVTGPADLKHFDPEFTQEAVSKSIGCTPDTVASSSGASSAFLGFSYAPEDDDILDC

[6] = biological target: Dual specificity mitogen-activated protein kinase kinase 4 (Homo sapiens) (UniProt P45985); conditions: Compound concentration 1000.0 nM
Sequence of Dual specificity mitogen-activated protein kinase kinase 4 (Homo sapiens) (P45985 whole entry): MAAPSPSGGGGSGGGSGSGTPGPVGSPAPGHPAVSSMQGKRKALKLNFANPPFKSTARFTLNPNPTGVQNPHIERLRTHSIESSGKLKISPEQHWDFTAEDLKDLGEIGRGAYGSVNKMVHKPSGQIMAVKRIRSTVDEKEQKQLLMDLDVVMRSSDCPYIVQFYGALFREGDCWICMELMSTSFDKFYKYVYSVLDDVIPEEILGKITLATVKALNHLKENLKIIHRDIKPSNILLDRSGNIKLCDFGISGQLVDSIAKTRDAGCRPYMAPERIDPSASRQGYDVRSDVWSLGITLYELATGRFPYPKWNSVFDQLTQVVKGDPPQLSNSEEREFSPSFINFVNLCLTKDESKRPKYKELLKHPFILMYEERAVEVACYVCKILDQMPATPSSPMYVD

[7] = biological target: Cyclin-dependent kinase-like 5 (Homo sapiens) (UniProt O76039); conditions: Compound concentration 1000.0 nM
[8] = biological target: Muscarinic acetylcholine receptor M5 (Homo sapiens) (UniProt P08912); conditions: Compound concentration 10.0 uM
[9] = tested on: Epidermal growth factor receptor (Homo sapiens), P00533 [T790M]; conditions: Compound concentration 1000.0 nM
[10] = biological target: Cyclin-dependent kinase 8 (Homo sapiens) (UniProt P49336); conditions: Compound concentration 1000.0 nM
[11] = biological target: 5-hydroxytryptamine receptor 2C (Homo sapiens) (UniProt P28335); conditions: Compound concentration 10.0 uM
Sequence of 5-hydroxytryptamine receptor 2C (Homo sapiens) (P28335 whole entry): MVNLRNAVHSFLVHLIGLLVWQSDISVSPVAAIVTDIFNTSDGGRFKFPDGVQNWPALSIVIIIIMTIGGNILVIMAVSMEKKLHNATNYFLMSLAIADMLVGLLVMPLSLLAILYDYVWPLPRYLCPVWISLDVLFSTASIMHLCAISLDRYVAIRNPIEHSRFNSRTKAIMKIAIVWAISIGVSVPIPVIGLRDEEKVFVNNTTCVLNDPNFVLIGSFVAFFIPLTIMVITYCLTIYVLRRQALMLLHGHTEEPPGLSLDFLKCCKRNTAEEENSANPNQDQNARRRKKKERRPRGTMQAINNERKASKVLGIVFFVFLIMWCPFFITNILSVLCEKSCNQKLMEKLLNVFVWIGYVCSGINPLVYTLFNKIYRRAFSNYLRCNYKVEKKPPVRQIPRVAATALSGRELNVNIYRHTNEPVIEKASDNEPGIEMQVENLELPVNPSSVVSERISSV

[12] = biological target: TRAF2 and NCK-interacting protein kinase (Homo sapiens) (UniProt Q9UKE5); conditions: Compound concentration 1000.0 nM
Sequence of TRAF2 and NCK-interacting protein kinase (Homo sapiens) (Q9UKE5 whole entry, looked up): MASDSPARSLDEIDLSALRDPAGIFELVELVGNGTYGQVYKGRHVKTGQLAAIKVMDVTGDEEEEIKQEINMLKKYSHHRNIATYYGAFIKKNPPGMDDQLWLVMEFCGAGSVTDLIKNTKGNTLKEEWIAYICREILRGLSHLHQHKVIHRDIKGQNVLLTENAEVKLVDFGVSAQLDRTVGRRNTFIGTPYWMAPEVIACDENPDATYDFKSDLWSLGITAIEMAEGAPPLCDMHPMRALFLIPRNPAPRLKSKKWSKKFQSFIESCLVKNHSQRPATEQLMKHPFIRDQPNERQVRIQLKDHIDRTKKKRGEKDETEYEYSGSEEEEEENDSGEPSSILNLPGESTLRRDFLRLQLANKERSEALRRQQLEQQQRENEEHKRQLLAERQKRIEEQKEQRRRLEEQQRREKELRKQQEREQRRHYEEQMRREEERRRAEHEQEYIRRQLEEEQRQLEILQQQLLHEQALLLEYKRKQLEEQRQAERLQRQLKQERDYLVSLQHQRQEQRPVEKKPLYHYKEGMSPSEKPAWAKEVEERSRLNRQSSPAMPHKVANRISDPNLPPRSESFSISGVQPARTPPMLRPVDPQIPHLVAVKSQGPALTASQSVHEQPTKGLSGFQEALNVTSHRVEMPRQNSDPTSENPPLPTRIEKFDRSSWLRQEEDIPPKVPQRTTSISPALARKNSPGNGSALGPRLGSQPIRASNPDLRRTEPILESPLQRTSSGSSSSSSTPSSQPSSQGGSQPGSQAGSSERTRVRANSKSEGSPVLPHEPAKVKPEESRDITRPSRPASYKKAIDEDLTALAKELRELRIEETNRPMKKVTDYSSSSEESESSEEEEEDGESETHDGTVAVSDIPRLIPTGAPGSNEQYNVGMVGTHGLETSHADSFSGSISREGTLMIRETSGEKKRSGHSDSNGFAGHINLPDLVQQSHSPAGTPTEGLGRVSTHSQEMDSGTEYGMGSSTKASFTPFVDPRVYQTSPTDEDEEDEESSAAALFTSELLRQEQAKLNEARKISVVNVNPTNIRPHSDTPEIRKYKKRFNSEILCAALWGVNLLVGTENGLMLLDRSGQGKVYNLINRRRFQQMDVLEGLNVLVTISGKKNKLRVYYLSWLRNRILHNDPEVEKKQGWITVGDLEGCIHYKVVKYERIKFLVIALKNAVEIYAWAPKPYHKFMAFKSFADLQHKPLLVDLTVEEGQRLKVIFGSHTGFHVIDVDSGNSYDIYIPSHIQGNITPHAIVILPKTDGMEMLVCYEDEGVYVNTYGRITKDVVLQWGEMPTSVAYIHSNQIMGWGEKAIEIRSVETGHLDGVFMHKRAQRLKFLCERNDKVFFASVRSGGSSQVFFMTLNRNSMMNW

[13] = biological target: T2, Protein kinase C epsilon type (Homo sapiens) (UniProt Q02156); conditions: Compound concentration 1000.0 nM
T2 sequence (whole entry): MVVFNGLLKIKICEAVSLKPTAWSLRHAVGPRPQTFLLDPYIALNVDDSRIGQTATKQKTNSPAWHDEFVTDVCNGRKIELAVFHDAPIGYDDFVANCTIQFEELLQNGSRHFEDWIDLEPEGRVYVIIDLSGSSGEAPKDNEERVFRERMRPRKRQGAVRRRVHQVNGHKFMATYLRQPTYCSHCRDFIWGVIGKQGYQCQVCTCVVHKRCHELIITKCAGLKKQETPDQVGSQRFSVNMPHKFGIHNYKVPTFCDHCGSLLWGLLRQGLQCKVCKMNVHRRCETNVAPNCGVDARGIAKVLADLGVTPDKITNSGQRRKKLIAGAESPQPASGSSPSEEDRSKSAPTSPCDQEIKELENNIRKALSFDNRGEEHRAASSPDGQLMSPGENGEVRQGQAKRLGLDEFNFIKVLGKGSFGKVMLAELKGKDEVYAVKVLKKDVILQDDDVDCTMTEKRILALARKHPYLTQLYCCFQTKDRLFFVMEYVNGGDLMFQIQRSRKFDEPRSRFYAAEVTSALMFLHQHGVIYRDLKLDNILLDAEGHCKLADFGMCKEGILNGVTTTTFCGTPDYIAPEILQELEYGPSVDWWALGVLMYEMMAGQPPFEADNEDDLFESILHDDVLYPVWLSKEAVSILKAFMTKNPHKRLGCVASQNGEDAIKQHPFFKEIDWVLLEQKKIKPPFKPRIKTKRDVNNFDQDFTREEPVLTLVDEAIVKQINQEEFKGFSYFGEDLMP

[14] = biological target: Phosphatidylinositol 3-kinase catalytic subunit type 3 (Homo sapiens) (UniProt Q8NEB9); conditions: Compound concentration 1000.0 nM
[15] = biological target: T3, Tyrosine-protein kinase TXK (Homo sapiens) (UniProt P42681); conditions: Compound concentration 1000.0 nM
T3 sequence (whole entry): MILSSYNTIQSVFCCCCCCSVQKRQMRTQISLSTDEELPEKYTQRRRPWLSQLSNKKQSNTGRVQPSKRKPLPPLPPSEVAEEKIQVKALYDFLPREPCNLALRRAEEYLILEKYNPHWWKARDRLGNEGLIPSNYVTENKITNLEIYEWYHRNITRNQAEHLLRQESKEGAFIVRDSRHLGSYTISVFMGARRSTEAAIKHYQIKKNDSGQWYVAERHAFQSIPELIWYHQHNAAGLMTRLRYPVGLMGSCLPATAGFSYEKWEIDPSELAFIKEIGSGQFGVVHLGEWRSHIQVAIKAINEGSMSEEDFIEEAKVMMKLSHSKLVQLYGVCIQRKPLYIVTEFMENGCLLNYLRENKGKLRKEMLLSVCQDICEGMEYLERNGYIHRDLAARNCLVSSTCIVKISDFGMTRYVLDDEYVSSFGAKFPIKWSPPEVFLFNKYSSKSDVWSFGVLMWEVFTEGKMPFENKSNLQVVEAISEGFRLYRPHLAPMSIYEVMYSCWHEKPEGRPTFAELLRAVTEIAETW

[16] = biological target: Ribosomal protein S6 kinase alpha-3 (Homo sapiens, UniProt P51812); conditions: Compound concentration 1000.0 nM
[17] = biological target: Alpha-1D adrenergic receptor (Homo sapiens) (UniProt P25100); conditions: Compound concentration 10.0 uM
[18] = biological target: Calcium/calmodulin-dependent protein kinase type 1D (Homo sapiens) (UniProt Q8IU85); conditions: Compound concentration 1000.0 nM
[19] = biological target: RAC-alpha serine/threonine-protein kinase (Homo sapiens) (UniProt P31749); conditions: Compound concentration 1000.0 nM
Sequence of RAC-alpha serine/threonine-protein kinase (Homo sapiens) (P31749 whole entry): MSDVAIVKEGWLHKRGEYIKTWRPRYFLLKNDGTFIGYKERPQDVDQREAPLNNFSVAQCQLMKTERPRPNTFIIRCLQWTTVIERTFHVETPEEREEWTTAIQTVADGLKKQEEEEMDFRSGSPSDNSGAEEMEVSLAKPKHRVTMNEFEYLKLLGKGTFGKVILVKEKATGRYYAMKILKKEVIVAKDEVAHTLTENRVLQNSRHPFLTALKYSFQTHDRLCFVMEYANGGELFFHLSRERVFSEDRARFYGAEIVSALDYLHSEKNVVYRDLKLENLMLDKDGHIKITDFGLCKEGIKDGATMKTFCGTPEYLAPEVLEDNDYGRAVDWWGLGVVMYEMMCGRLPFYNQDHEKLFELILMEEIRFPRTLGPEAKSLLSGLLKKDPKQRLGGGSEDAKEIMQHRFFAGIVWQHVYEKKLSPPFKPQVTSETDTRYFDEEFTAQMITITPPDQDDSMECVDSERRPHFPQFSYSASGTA

[20] = biological target: Homeodomain-interacting protein kinase 2 (Homo sapiens) (UniProt Q9H2X6); conditions: Compound concentration 1000.0 nM
[21] = biological target: Serine/threonine-protein kinase PknB (Mycobacterium tuberculosis) (UniProt P9WI81); conditions: Compound concentration 1000.0 nM
Sequence of Serine/threonine-protein kinase PknB (Mycobacterium tuberculosis) (P9WI81 whole entry): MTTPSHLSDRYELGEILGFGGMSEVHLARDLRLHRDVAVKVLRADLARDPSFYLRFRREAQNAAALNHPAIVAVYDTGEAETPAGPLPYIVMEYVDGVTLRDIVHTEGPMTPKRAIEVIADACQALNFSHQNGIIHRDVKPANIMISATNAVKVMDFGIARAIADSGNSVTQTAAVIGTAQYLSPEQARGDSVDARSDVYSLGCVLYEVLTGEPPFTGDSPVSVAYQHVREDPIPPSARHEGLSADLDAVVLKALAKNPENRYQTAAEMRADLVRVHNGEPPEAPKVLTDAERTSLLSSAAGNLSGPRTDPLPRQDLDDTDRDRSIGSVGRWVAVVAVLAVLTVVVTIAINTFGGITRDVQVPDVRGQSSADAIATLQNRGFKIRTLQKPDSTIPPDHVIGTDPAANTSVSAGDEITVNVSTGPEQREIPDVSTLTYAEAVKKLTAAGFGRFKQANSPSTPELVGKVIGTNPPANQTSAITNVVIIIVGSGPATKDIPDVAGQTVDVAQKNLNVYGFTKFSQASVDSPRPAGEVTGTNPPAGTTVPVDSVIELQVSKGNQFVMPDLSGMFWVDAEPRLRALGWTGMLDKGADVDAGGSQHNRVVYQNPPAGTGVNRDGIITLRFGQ

[22] = tested on: Tyrosine-protein kinase ABL1 (Homo sapiens), P00519 [H396P]; conditions: Compound concentration 1000.0 nM
[23] = biological target: Receptor tyrosine-protein kinase erbB-2 (Homo sapiens) (UniProt P04626); conditions: Compound concentration 1000.0 nM
Sequence of Receptor tyrosine-protein kinase erbB-2 (Homo sapiens) (P04626 whole entry): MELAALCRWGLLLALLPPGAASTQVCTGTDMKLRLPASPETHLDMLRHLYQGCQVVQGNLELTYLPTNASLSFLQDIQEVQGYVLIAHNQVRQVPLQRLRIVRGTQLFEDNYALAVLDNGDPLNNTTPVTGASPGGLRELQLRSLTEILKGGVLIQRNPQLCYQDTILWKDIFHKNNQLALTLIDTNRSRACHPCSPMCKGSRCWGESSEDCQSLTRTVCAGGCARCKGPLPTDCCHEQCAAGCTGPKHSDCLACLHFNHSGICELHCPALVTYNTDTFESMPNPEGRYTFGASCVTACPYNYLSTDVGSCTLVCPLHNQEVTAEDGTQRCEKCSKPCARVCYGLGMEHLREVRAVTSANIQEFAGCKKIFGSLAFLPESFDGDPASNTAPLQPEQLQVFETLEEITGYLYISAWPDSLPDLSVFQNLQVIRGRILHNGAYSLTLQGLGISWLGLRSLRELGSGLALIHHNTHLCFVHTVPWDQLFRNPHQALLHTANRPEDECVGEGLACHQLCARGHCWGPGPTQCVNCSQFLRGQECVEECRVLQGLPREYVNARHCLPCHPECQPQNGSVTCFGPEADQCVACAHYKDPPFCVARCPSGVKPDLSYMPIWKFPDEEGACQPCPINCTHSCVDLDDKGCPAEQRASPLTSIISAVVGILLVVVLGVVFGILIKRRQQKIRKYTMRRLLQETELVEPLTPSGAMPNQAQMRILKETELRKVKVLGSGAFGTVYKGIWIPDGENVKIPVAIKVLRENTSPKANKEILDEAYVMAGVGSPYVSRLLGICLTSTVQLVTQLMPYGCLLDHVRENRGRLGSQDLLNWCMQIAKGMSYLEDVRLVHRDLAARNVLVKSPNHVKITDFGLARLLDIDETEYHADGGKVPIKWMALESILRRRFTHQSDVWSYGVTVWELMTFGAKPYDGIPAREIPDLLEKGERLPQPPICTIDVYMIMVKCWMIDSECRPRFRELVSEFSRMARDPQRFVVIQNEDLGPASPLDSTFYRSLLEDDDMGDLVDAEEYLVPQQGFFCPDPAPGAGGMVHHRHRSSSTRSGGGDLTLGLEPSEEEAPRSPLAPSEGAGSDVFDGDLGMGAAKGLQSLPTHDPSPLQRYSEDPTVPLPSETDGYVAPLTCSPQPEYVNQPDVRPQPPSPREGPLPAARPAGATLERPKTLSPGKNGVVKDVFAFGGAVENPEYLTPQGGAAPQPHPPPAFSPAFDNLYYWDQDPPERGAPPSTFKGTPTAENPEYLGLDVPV

Sequence of 5-hydroxytryptamine receptor 7 (Homo sapiens) (P34969 whole entry): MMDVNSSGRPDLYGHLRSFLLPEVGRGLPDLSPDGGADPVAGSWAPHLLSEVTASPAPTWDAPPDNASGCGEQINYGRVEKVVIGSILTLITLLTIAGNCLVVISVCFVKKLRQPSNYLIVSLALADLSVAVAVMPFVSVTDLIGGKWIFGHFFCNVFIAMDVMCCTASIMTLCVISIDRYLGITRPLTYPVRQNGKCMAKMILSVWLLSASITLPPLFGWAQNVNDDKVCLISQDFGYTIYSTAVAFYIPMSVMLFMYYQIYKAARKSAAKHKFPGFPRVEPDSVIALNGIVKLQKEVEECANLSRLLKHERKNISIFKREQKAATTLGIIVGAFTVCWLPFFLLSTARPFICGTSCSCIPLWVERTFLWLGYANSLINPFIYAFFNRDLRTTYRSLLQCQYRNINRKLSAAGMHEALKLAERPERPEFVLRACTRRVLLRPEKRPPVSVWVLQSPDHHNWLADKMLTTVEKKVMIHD

SMILES | residual activity [1] [%] | residual activity [2] [%] | inhibition [3] [%] | residual activity [4] [%] | residual activity [5] [%] | residual activity [6] [%] | residual activity [7] [%] | inhibition [8] [%] | residual activity [9] [%] | residual activity [10] [%] | inhibition [11] [%] | residual activity [12] [%] | residual activity [13] [%] | residual activity [14] [%] | residual activity [15] [%] | residual activity [16] [%] | inhibition [17] [%] | residual activity [18] [%] | residual activity [19] [%] | residual activity [20] [%] | further results
CC1=C(C#N)C(c2ccc3c(c2)c(NC(=O)c2ccccc2C)nn3C)C(C#N)=C(C)N1 [BAY-974] | 100 | 87 | 6.72 | 100 | 73 | 79 | 79 | 6.82 | 100 | 97 | 22.5 | 98 | 85 | 87 | 100 | 94 | 4.71 | 93 | 94 | 73 | residual activity [21]: 97%; residual activity [22]: 100%; residual activity [23]: 86%
CCc1ccccc1C(=O)Nc1n[nH]c2c(C)c(F)c(C3C(C#N)=C(C)N(C)C(C)=C3C#N)cc12 [BAY-3827] | 100 | 84 | 13.9 | 100 | 100 | 100 | 100 | 17.9 | 100 | 71 | 20 | 78 | 19 | 100 | 84 | 100 | 2.75 | 87 | 75 | 100 | residual activity [21]: 85%; residual activity [22]: 95%; residual activity [23]: 71%
